Test results reported in publication PMC7450057, “Enhancing intracellular accumulation and target engagement of PROTACs with reversible covalent chemistry” (Nature Communications, 2020).
Where “and” joins values, the source holds several entries; their conditions need not be identical. Equal entries are not always repeated. Entries after “also recorded” stand apart in the source; their conditions may differ. Where two headings read alike, the source gives them in different places.

Legend:
C481S mutant BTK = target: T1, C481S mutant BTK (Homo sapiens, UniProt Q06187, C481S); test: BTK degradation in XLA cells overexpressing C481S mutant BTK (western blot); format: cell-based; conditions: 24 h
T1 construct: expressed in transfected cells; host or cells: XLA cells (gift from Dr. Woyach)
T1 sequence (Q06187 whole entry C481S): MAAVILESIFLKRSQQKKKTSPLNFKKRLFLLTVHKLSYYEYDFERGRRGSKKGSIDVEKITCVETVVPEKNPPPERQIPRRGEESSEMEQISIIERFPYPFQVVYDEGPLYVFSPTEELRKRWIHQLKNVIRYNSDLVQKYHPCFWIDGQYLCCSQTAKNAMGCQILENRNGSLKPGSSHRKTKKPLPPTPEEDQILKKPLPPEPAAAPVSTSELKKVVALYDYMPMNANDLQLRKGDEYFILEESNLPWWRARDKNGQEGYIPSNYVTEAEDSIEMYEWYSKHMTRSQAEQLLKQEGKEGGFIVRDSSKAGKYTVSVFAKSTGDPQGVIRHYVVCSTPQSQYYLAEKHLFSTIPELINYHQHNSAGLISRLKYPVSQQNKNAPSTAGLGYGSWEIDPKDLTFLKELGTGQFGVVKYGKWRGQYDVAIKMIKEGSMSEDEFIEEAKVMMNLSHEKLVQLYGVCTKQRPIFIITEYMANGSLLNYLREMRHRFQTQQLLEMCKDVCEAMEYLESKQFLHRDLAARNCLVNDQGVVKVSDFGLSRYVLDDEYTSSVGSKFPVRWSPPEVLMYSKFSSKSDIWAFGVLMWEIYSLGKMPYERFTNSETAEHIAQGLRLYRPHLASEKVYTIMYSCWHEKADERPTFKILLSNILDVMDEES
Procedure: XLA cells overexpressing wild-type BTK or mutant C481S BTK were plated at the same cell number and density as the above experiments and were treated with RC-1, IRC-1, or RNC-1 at the dose of 1.6, 8.0, 40, 200, and 1000 nM for 24 h. After completion of treatment, all the cells were collected and processed for western blot analysis.
(§1) The collected cells and spleen tissues were lysed in RIPA lysis buffer (50 mM Tris-HCl, pH 7.4, 150 mM NaCl, 1% NP-40, 0.5% sodium deoxycholate, 0.1% SDS) supplemented with Halt™ Protease and Phosphatase Inhibitor Cocktail (Thermo Fisher Scientific, Cat. No. PI78440) immediately before use. Lysates were centrifuged at 15,000 × g for 10 min at 4 °C and the supernatant was quantified for total protein concentration using the Pierce BCA Protein Assay (Thermo Fisher Scientific, Cat. No. 23225). Thirty micrograms of protein were loaded onto sodium dodecyl sulfate−polyacrylamide gel for electrophoresis (Bio-Rad) and transferred onto PVDF membranes (Millipore, Cat. No. IPVH00010). […] Imaging was performed using the ECL Prime chemiluminescent western blot detection reagents (GE Healthcare, Cat. No. RPN2232) by visualization of the blots to X-Ray film or with an Imager (Kindle Biosciences, Cat. No. D1001). All western blots were subsequently processed and quantified with Imager software. Protein level was normalized to β-actin or GAPDH loading controls.

Mino cells = test: AlamarBlue cell viability assay, Mino; format: cell-based; conditions: for Mino Cell Viability%: Figure 2f, 5 replicates
Procedure: (§2) The IC50 was calculated using GraphPad Prism software with a four-parameter dose-response curve fit.

MOLM-14 cells = test: AlamarBlue cell viability assay, MOLM-14; conditions: for MOLM-14 Cell Viability%: Figure 2f, 5 replicates
Procedure: as §2

Mino = test: IC50 in MCL cell lines (Supplementary Table 2), Mino; conditions: for Cell Viability (%): Mino cells, replicate wells
Maver-1 = test: IC50 in MCL cell lines (Supplementary Table 2), Maver-1; conditions: for Cell Viability (%): Maver-1 cells, replicate wells
IKZF1 = test: Splenic IKZF1 level in mice after single RC-1 injection (western blot); format: in vivo, ICR mice; conditions: for IKZF1 level, mean: Figure 5d, DMSO = 100; for IKZF1 quantification: Supplementary Figure 8, individual animals
Procedure: To investigate the protein degradation effect of RC-1 in vivo, mice were subjected to single RC-1 administration at the dose of 50 or 100 mg kg^−1 (i.p.) or seven once-daily RC-1 administration at the dose of 20 mg kg^−1 (i.p.) (n = 2–3). Twenty-four hours after the one-time RC-1 injection or 24 h after the 7th injection, mice were anesthetized with isoflurane and the whole spleen was dissected and stored at −80 °C for western blot analysis of protein level.
Supplementary Figure 8. Protein degradation by BTK PROTAC RC-1 in mouse spleen. ICR mice were subjected to single IP injection of RC-1 at the dose of 50 mg/kg (n = 4) or 100 mg/kg (n = 3) and spleens were harvested 24 h after injection. (a) The splenic p-BTK(Y233), BTK, IKZF1 and IKZF3 levels were measured with Western blot. (b). Quantification of protein levels shown in (a). Data are presented as mean values ± SEM.
Asterisks indicate that the differences between samples are statistically significant, using two-tailed, unpaired t- […]
test (* p < 0.05; significant).
(1 picture or pasted object on this page, not shown here)

BTK = BTK (Mus musculus, UniProt P35991); test: BTK degradation in mouse B-cell lymphoma cell line derived from Eu-Myc mice; format: cell-based; design: endogenous in cells; host or cells: B cell lymphoma cell line derived from Eu-Myc mice; conditions: for BTK quantification (anti-BTK / anti-β-actin): Supplementary Figure 10, replicates, DMSO about 100
Chain of BTK (P35991 whole entry): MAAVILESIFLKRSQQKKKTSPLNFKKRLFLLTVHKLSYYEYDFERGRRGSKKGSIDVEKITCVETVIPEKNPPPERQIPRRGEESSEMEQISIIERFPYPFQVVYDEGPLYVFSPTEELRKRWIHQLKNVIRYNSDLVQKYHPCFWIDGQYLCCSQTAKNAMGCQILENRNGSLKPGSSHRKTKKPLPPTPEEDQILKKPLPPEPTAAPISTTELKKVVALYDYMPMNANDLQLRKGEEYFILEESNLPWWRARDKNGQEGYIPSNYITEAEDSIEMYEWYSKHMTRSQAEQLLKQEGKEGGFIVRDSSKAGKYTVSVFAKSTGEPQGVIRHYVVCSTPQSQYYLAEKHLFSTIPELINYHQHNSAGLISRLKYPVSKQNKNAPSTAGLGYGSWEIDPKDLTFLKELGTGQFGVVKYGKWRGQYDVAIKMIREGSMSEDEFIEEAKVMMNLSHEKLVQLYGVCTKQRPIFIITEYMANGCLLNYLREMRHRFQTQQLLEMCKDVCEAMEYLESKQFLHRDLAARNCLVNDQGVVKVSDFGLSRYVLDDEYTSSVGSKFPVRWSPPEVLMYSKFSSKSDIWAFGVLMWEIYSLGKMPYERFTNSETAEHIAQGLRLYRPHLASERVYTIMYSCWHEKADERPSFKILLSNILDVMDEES
Procedure: MOLM-14 cell line was obtained from Dr. Conneely at Baylor College of Medicine, and the Mino cells were purchased from the American Type Culture Collection (ATCC, Cat. No. CRL-3000). Both cell lines were cultured in RPMI 1640 medium (Thermo Fisher Scientific, Cat. No. MT10040CV) supplemented with 10% fetal bovine serum (GE Healthcare, Cat. No. SH30071.03) and 1% Pen/Strep (Thermo Fisher Scientific, Cat. No. 15140163). The wild-type and C481S BTK XLA cell lines were gifts from Dr. Woyach at The Ohio State University and were cultured in RPMI 1640 medium with 15% fetal bovine serum, 1% Pen/Strep, and 1.0 µg/ml puromycin (Thermo Fisher Scientific, Cat. No. A1113803). HEK 293T/17 cells were purchased from ATCC (Cat. No. CRL-11268) were maintained in DMEM (Thermo Fisher Scientific, Cat. No. MT10013CV) with 10% fetal bovine serum and 1% Pen-Strep. The B cell lymphoma cell line derived from Eu-Myc mice was a gift from Dr. Yulin Li at Houston Methodist Research Institute and cultured in RPMI 1640 medium supplemented with 15% (v/v) fetal bovine serum (FBS), 100 U/mL penicillin, 100 μg/mL streptomycin, and 0.05 mM beta-mercaptoethanol and puromycin (1 μg/mL). Cells were grown at 37 °C with 5% CO2.
as §1

CN(CCCNC(=O)CNc1cccc2c1C(=O)N(C1CCC(=O)NC1=O)C2=O)C(C)(C)C=C(C#N)C(=O)N1CCC[C@@H](n2nc(-c3ccc(Oc4ccccc4)cc3)c3c(N)ncnc32)C1 (stereo partly drawn) [RC-1]
BTK degradation (in words) (C481S mutant BTK): dose-dependent BTK degradation; also recorded: degrades both wild-type BTK and the C481S mutant with similar potency | Mino Cell Viability% (Mino cells; 1.00E-06 M): 28.3764% and 24.0469% and 29.6497% and 18.1013% and 27.4262% | Mino Cell Viability% (Mino cells; 1.60E-09 M): 86.471% and 91.0355% and 88.9002% and 84.3749% and 77.1755% | Mino Cell Viability% (Mino cells; 2.00E-07 M): 40.1501% and 37.7601% and 35.1644% and 26.339% and 31.6381% | Mino Cell Viability% (Mino cells; 3.20E-10 M): 96.9028% and 99.5475% and 70.4757% and 81.6714% and 61.4054% | Mino Cell Viability% (Mino cells; 4.00E-08 M): 90.2127% and 74.3055% and 49.5631% and 47.134% and 61.6895% | Mino Cell Viability% (Mino cells; 5.00E-06 M): 17.0239% and 17.5724% and 29.8456% and 19.8449% and 25.2419% | Mino Cell Viability% (Mino cells; 8.00E-09 M): 98.4014% and 91.3588% and 67.7918% and 72.9048% and 65.2157% | IC50 (Mino cells; Homo sapiens, Mino cells, 72 h, Alamar Blue): 80 nM | MOLM-14 Cell Viability% (MOLM-14 cells; 1.00E-05 M): 9.063% and 7.786% and 9.631% and 4.44% and 5.17% | MOLM-14 Cell Viability% (MOLM-14 cells; 1.60E-08 M): 88.4631% and 84.0227% and 77.0073% and 72.5061% and 64.8418% | MOLM-14 Cell Viability% (MOLM-14 cells; 2.00E-06 M): 14.0511% and 10.5434% and 12.6318% and 8.942% and 10.7462% | MOLM-14 Cell Viability% (MOLM-14 cells; 3.20E-09 M): 89.923% and 89.9432% and 89.2741% and 70.2555% and 64.2336% | MOLM-14 Cell Viability% (MOLM-14 cells; 4.00E-07 M): 53.7916% and 40.7948% and 45.6813% and 36.6383% and 39.4972% | MOLM-14 Cell Viability% (MOLM-14 cells; 6.40E-10 M): 94.6269% and 96.3301% and 81.3058% and 78.386% and 72.2831% | MOLM-14 Cell Viability% (MOLM-14 cells; 8.00E-08 M): 69.5864% and 88.0779% and 68.3495% and 63.8078% and 82.5426% | IC50 (MOLM-14 cells; Homo sapiens, MOLM-14, 72 h, read-out: Cell viability IC50, MOLM-14 cells, 72 h, Alamar Blue): 300 nM | IC50 (MOLM-14 cells; read-out: Cell viability IC50, MOLM-14 cells, 72 h, Alamar Blue): 310 nM | Cell Viability (%) (Mino; 1.25E-06 M): 39.6721% and 39.1711% and 38.89% | Cell Viability (%) (Mino; 1.56E-07 M): 67.6678% and 68.2351% and 62.6329% | Cell Viability (%) (Mino; 2.50E-06 M): 36.14% and 35.6851% and 33.7887% | Cell Viability (%) (Mino; 3.13E-07 M): 53.7594% and 53.6077% and 49.7111% | Cell Viability (%) (Mino; 5.00E-06 M): 32.4512% and 31.601% and 30.272% | Cell Viability (%) (Mino; 6.25E-07 M): 49.0909% and 46.392% and 45.7071% | Cell Viability (%) (Mino; 7.81E-08 M): 89.7818% and 79.7053% and 78.5229% | IC50 (Mino; Mino, triplicates): 400 nM | IC50 (Maver-1; Maver-1, triplicates): 3300 nM | Cell Viability (%) (Maver-1; 1.25E-06 M): 72.3477% and 75.344% and 75.6032% | Cell Viability (%) (Maver-1; 1.56E-07 M): 94.303% and 94.8872% and 90.9031% | Cell Viability (%) (Maver-1; 2.50E-06 M): 56.7361% and 58.5739% and 54.2977% | Cell Viability (%) (Maver-1; 3.13E-07 M): 94.0011% and 92.8623% and 88.8158% | Cell Viability (%) (Maver-1; 5.00E-06 M): 44.682% and 45.5221% and 44.0945% | Cell Viability (%) (Maver-1; 6.25E-07 M): 91.7892% and 94.3523% and 87.1487% | Cell Viability (%) (Maver-1; 7.81E-08 M): 97.5389% and 95.4976% and 96.2656% | IKZF1 level, mean (IKZF1; 1 injection): 82.288 | IKZF1 level, mean (IKZF1; 7 injections): 77.6802 | IKZF1 quantification (IKZF1; RC-1 50 mg/kg, 50 mg/kg): 32.4273 and 61.2234 and 87.896 and 43.9089 | IKZF1 quantification (IKZF1; RC-1 100 mg/kg, 100 mg/kg): 24.57 and 78.1459 and 58.0151 | BTK quantification (anti-BTK / anti-β-actin) (BTK; 8 nM): 63.6968 and 56.9893 | BTK quantification (anti-BTK / anti-β-actin) (BTK; 40 nM): 41.0784 and 35.9122 | BTK quantification (anti-BTK / anti-β-actin) (BTK; 200 nM): 29.8182 and 40.565 | maximum BTK degradation (BTK; dosed up to 25 µM, 24 h): 30–40%
